Read-outs that look alike come from different tables or passages of the source.
Experiments:
[1] = test system: GMR-GAL4>w1118 control flies; settings: in vivo
[2] = test system: GMR-GAL4>w1118 control flies; test: Eye development of control flies fed TKI (SEM)
BCR-ABL1 = settings: cited from earlier work

eye development in control flies fed drug (in words) [1]	eye development in control flies fed drug (in words) [2]	Compound	potency for BCR-AB1L inhibition in vitro compared to imatinib (BCR-ABL1) [fold]
Normal development		Cc1ccc(NC(=O)c2ccc(CN3CCN(C)CC3)cc2)cc1Nc1nccc(-c2cccnc2)n1 [imatinib]	
	Normal development	Cc1ccc(C(=O)Nc2ccc(CN3CCN(C)CC3)c(C(F)(F)F)c2)cc1C#Cc1cnc2cccnn12 [ponatinib]	
Normal development		Cc1nc(Nc2ncc(C(=O)Nc3c(C)cccc3Cl)s2)cc(N2CCN(CCO)CC2)n1 [dasatinib]	
Normal development		Cc1cn(-c2cc(NC(=O)c3ccc(C)c(Nc4nccc(-c5cccnc5)n4)c3)cc(C(F)(F)F)c2)cn1 [nilotinib]	20

From patent US20200037588A1, “METHODS OF A DROSOPHILA MODEL FOR CHRONIC MYELOID LEUKEMIA (CML) TREATMENT” (American University of Beirut, priority 2018, published 2020)
